Measured values taken from PubChem BioAssay AID328 (DTP/NCI, 2004).
“And” between values parts separate entries of the source, which are not always exact repeats. Identical values can stand only once. Inconclusive results and toxic doses are left out.

Test system: BDF1 mice, P388 leukemia ip, median survival T/C
Experiment: NCI In Vivo Anticancer Drug Screen. Data for tumor model P388 Leukemia (intraperitoneal) in B6D2F1 (BDF1) mice
Details: endpoint: median survival time, higher = longer survival
Summary of the method: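 Each value expresses how treatment altered survival: treated-mouse outcome over vehicle-mouse outcome, both groups bearing the transplanted tumour.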

[1] = dose: 6.25 mg/kg/injection, schedule: Q01DX009 (ip), vehicle: Klucel (hydroxypropylcellulose) (HPC)
[2] = dose: 25.0 mg/kg/injection, schedule: Q01DX009 (ip), vehicle: saline
[3] = dose: 50.0 mg/kg/injection, schedule: Q01DX009 (ip), vehicle: saline
[4] = dose: 100.0 mg/kg/injection, schedule: Q04DX003 (ip), vehicle: saline
[5] = dose: 200.0 mg/kg/injection, schedule: Q04DX003 (ip), vehicle: saline
[6] = dose: 100.0 mg/kg/injection, schedule: Q01DX009 (ip), vehicle: Klucel (hydroxypropylcellulose) (HPC)
[7] = dose: 100.0 mg/kg/injection, schedule: Q04DX003 (ip), vehicle: Klucel (hydroxypropylcellulose) (HPC)
[8] = dose: 200.0 mg/kg/injection, schedule: Q04DX003 (ip), vehicle: Klucel (hydroxypropylcellulose) (HPC)
[9] = dose: 400.0 mg/kg/injection, schedule: Q01DX009 (ip), vehicle: Klucel (hydroxypropylcellulose) (HPC)
[10] = dose: 400.0 mg/kg/injection, schedule: Q04DX003 (ip), vehicle: Klucel (hydroxypropylcellulose) (HPC)
[11] = dose: 12.5 mg/kg/injection, schedule: Q01DX009 (ip), vehicle: saline with Tween-80
[12] = dose: 25.0 mg/kg/injection, schedule: Q01DX009 (ip), vehicle: saline with Tween-80
[13] = dose: 50.0 mg/kg/injection, schedule: Q01DX009 (ip), vehicle: saline with Tween-80

For `CC[CH2][Sn]([CH2]CC)([CH2]CC)[O][Sn]([CH2]CC)([CH2]CC)[CH2]CC`, the T/C (dose: 0.25 mg/kg/injection, schedule: Q01DX009 (ip), vehicle: saline with Tween-80) was 90 % of control, the T/C (dose: 0.25 mg/kg/injection, schedule: Q04DX003 (ip), vehicle: saline with Tween-80) was 100 % of control and the T/C (dose: 0.5 mg/kg/injection, schedule: Q01DX009 (ip), vehicle: saline with Tween-80) was 95 % of control. The T/C (dose: 0.5 mg/kg/injection, schedule: Q04DX003 (ip), vehicle: saline with Tween-80) was 104 % of control, the T/C (dose: 1.0 mg/kg/injection, schedule: Q01DX009 (ip), vehicle: saline with Tween-80) was 100 % of control and the T/C (dose: 1.0 mg/kg/injection, schedule: Q04DX003 (ip), vehicle: saline with Tween-80) was 100 % of control.

In the case of `COc1cccc(/C=C/[N+](=O)[O-])c1OC`, the T/C [1] is reported as 113 % of control, the T/C (dose: 6.25 mg/kg/injection, schedule: Q01DX009 (ip), vehicle: saline) is reported as 100 % of control and the T/C (dose: 12.5 mg/kg/injection, schedule: Q01DX009 (ip), vehicle: saline) is reported as 106 % of control. The T/C (dose: 12.5 mg/kg/injection, schedule: Q01DX010 (ip), vehicle: carboxymethylcellulose (CMC)) was 115 % of control, the T/C [2] was 104 % of control and the T/C (dose: 35.0 mg/kg/injection, schedule: Q01DX009 (ip), vehicle: Klucel (hydroxypropylcellulose) (HPC)) was 117 % of control. The T/C [3] was 113 % of control, the T/C (dose: 50.0 mg/kg/injection, schedule: Q04DX003 (ip), vehicle: saline) was 102 % of control and the T/C (dose: 100.0 mg/kg/injection, schedule: Q01DX009 (ip), vehicle: saline) was 104 % of control. For the same compound, the T/C [4] was 98 % of control, the T/C (dose: 200.0 mg/kg/injection, schedule: Q01DX009 (ip), vehicle: saline) was 91 % of control and the T/C [5] was 95 % of control. For the same compound, the T/C (dose: 400.0 mg/kg/injection, schedule: Q01DX009 (ip), vehicle: saline) was 91 % of control and the T/C (dose: 400.0 mg/kg/injection, schedule: Q04DX003 (ip), vehicle: saline) was 106 % of control.

For `O=C(Oc1ccc([N+](=O)[O-])cc1)c1ccc(CBr)cc1`, the T/C [2] was 95 % of control, the T/C [3] was 100 % of control and the T/C [4] was 90 % of control. The T/C [5] was 86 % of control.

`Nc1ccccc1C(=O)OCCc1ccccc1` was tested, and the T/C [6] was 100 % of control, the T/C [7] was 95 % of control and the T/C [8] was 91 % of control. The T/C (dose: 266.0 mg/kg/injection, schedule: Q01DX009 (ip), vehicle: Klucel (hydroxypropylcellulose) (HPC)) was 94 % of control, the T/C [9] was 110 % of control and the T/C [10] was 95 % of control. For the same compound, the T/C (dose: 600.0 mg/kg/injection, schedule: Q01DX009 (ip), vehicle: Klucel (hydroxypropylcellulose) (HPC)) was 100 % of control.

With `O=[N+]([O-])c1ccc(/C=C/c2cccc(/C=C/c3ccc([N+](=O)[O-])cc3)[n+]2[O-])cc1` the T/C (dose: 50.0 mg/kg/injection, schedule: Q01DX005 (ip), vehicle: saline with Tween-80) was 96 % of control, the T/C (dose: 100.0 mg/kg/injection, schedule: Q01DX005 (ip), vehicle: saline with Tween-80) was 94 % of control and the T/C (dose: 200.0 mg/kg/injection, schedule: Q01DX005 (ip), vehicle: saline with Tween-80) was 93 % of control.

With `Cn1c(=O)n(C)c2ccccc21` the T/C (dose: 15.0 mg/kg/injection, schedule: Q01DX001 (ip), vehicle: saline) was 90 % of control, the T/C (dose: 25.0 mg/kg/injection, schedule: Q01DX001 (ip), vehicle: saline with Tween-80) was 90 % of control and 100 % of control and the T/C (dose: 25.0 mg/kg/injection, schedule: Q01DX001 (ip), vehicle: saline) was 90 % of control. For the same compound, the T/C (dose: 35.0 mg/kg/injection, schedule: Q01DX001 (ip), vehicle: saline) was 100 % of control, the T/C (dose: 50.0 mg/kg/injection, schedule: Q01DX001 (ip), vehicle: saline with Tween-80) was 104 % of control and the T/C (dose: 50.0 mg/kg/injection, schedule: Q01DX001 (ip), vehicle: saline) was 100 % of control. The T/C (dose: 75.0 mg/kg/injection, schedule: Q01DX001 (ip), vehicle: saline) was 90 % of control, the T/C (dose: 100.0 mg/kg/injection, schedule: Q01DX001 (ip), vehicle: saline with Tween-80) was 90 % of control and 95 % of control and the T/C [7] was 95 % of control. The T/C [8] was 91 % of control and the T/C [10] was 91 % of control.

In the case of `COc1c(C)c2c3c4c1C(=O)C(=CC4=O)NC(=O)/C(C)=C\C=C\C(C)C1OC(C)(C)OC(C1C)C(C)C(OC(C)=O)C(C)C(OC)/C=C/OC(C)(O2)C3=O` (configuration not stated), the T/C [11] is reported as 109 % of control, the T/C [12] is reported as 113 % of control and the T/C [13] is reported as 105 % of control and 117 % of control.

`O=NN(CCCl)C(=O)Nc1c[nH]c(=O)[nH]c1=O` was tested, and the T/C (dose: 0.08 mg/kg/injection, schedule: Q04DX003 (ip), vehicle: saline with Tween-80) was 155 % of control, the T/C (dose: 0.09 mg/kg/injection, schedule: Q04DX003 (ip), vehicle: saline with Tween-80) was 100 % of control and the T/C (dose: 0.15 mg/kg/injection, schedule: Q04DX003 (ip), vehicle: saline with Tween-80) was 180 % of control. For the same compound, the T/C (dose: 0.3 mg/kg/injection, schedule: Q04DX003 (ip), vehicle: saline with Tween-80) was 185 % of control, the T/C (dose: 0.78 mg/kg/injection, schedule: Q04DX003 (ip), vehicle: saline with Tween-80) was 175 % of control and the T/C (dose: 1.56 mg/kg/injection, schedule: Q04DX003 (ip), vehicle: saline with Tween-80) was 154 % of control. For the same compound, the T/C (dose: 2.4 mg/kg/injection, schedule: Q01DX009 (ip), vehicle: saline with Tween-80) was 186 % of control, the T/C (dose: 3.12 mg/kg/injection, schedule: Q04DX003 (ip), vehicle: saline with Tween-80) was 213 % of control and the T/C (dose: 3.6 mg/kg/injection, schedule: Q01DX009 (ip), vehicle: saline with Tween-80) was 201 % of control. The T/C (dose: 4.0 mg/kg/injection, schedule: Q01DX009 (ip), vehicle: saline with Tween-80) was 195 % of control, the T/C (dose: 5.5 mg/kg/injection, schedule: Q01DX009 (ip), vehicle: saline with Tween-80) was 193 % of control and the T/C (dose: 6.0 mg/kg/injection, schedule: Q01DX009 (ip), vehicle: saline with Tween-80) was 229 % of control. The T/C (dose: 6.25 mg/kg/injection, schedule: Q04DX003 (ip), vehicle: saline with Tween-80) was 190 % of control, the T/C (dose: 8.0 mg/kg/injection, schedule: Q01DX009 (ip), vehicle: saline with Tween-80) was 220 % of control and the T/C (dose: 8.0 mg/kg/injection, schedule: Q04DX003 (ip), vehicle: saline with Tween-80) was 204 % of control. The T/C (dose: 9.0 mg/kg/injection, schedule: Q01DX009 (ip), vehicle: saline with Tween-80) was 120 % of control, the T/C (dose: 12.0 mg/kg/injection, schedule: Q01DX009 (ip), vehicle: saline with Tween-80) was 250 % of control and the T/C (dose: 12.0 mg/kg/injection, schedule: Q04DX003 (ip), vehicle: saline with Tween-80) was 204 % of control. For the same compound, the T/C [11] was 250 % of control, the T/C (dose: 12.5 mg/kg/injection, schedule: Q04DX003 (ip), vehicle: saline with Tween-80) was 230 % of control and the T/C (dose: 18.0 mg/kg/injection, schedule: Q01DX009 (ip), vehicle: saline with Tween-80) was 104 % of control. The T/C (dose: 18.0 mg/kg/injection, schedule: Q04DX003 (ip), vehicle: saline with Tween-80) was 227 % of control, the T/C [12] was 100 % of control and the T/C (dose: 25.0 mg/kg/injection, schedule: Q04DX003 (ip), vehicle: saline with Tween-80) was 230 % of control. For the same compound, the T/C (dose: 50.0 mg/kg/injection, schedule: Q04DX003 (ip), vehicle: saline with Tween-80) was 230 % of control.

`NC(Cc1cccs1)C(=O)O` (configuration not stated) was tested, and the T/C (dose: 100.0 mg/kg/injection, schedule: Q01DX009 (ip), vehicle: saline with Tween-80) was 100 % of control, the T/C (dose: 200.0 mg/kg/injection, schedule: Q01DX009 (ip), vehicle: saline with Tween-80) was 110 % of control and the T/C (dose: 400.0 mg/kg/injection, schedule: Q01DX009 (ip), vehicle: saline with Tween-80) was 110 % of control.

With `CCOC(=O)C(C(=O)OCC)C1C=CCC1` (configuration not stated) the T/C [6] was 100 % of control, the T/C [7] was 95 % of control and the T/C (dose: 200.0 mg/kg/injection, schedule: Q01DX009 (ip), vehicle: Klucel (hydroxypropylcellulose) (HPC)) was 104 % of control. The T/C [8] was 116 % of control, the T/C [9] was 109 % of control and the T/C [10] was 100 % of control.

`C[C@]12CC[C@H](O)C=C1CC[C@@H]1[C@@H]2CC[C@]2(C)C(c3ccc(=O)oc3)CC[C@]12O` (some centres not stated) was tested, and the T/C [1] was 96 % of control and the T/C (dose: 12.5 mg/kg/injection, schedule: Q01DX009 (ip), vehicle: Klucel (hydroxypropylcellulose) (HPC)) was 86 % of control.

In the case of `CN(C)c1ccc(/C=C/c2ccnc3ccc(I)cc23)cc1`, the T/C (dose: 6.25 mg/kg/injection, schedule: Q01DX009 (ip), vehicle: saline with Tween-80) is reported as 96 % of control, the T/C [11] is reported as 119 % of control and the T/C [13] is reported as 116 % of control.
